Assay results taken from ChEMBL document CHEMBL3390836, “Mannich- and LedererManasse-based analogues of the natural product S-(+)-curcuphenol as cancer proliferation and migration inhibitors” (Medchemcomm, 2012).

Assays:
Assay type in all cases: functional
[1] = system: COLO 205; experiment: Cytotoxicity against human COLO205 cells assessed as cell growth at 10^-8 M after 48 hrs by SRB assay relative to control; conditions: COLO 205, 48 h, read-out: Activity
[2] = system: A498; experiment: Cytotoxicity against human A498 cells assessed as cell growth at 10^-7 M after 48 hrs by SRB assay relative to control; conditions: A498, 48 h, read-out: Activity
[3] = Cytotoxicity against human NCI-ADR-RES cells assessed as cell growth at 10^-8 M after 48 hrs by SRB assay relative to control; conditions: read-out: Activity
[4] = system: SK-MEL-5; experiment: Cytotoxicity against human SK-MEL-5 cells assessed as cell growth at 10^-4 M after 48 hrs by SRB assay relative to control; conditions: SK-MEL-5, 48 h, read-out: Activity
[5] = system: SK-MEL-28; experiment: Cytotoxicity against human SK-MEL-28 cells assessed as cell growth at 10^-4 M after 48 hrs by SRB assay relative to control; conditions: SK-MEL-28, 48 h, read-out: Activity
[6] = Cytotoxicity against human Hs 578T cells assessed as cell growth at 10^-6 M after 48 hrs by SRB assay relative to control; conditions: read-out: Activity
[7] = system: NCI-H226; experiment: Cytotoxicity against human NCI-H226 cells after 48 hrs by SRB assay; conditions: NCI-H226, 48 h
[8] = system: MOLT-4; experiment: Cytotoxicity against human MOLT4 cells assessed as cell growth at 10^-7 M after 48 hrs by SRB assay relative to control; conditions: MOLT-4, 48 h, read-out: Activity
[9] = Cytotoxicity against human UO31 cells after 48 hrs by SRB assay; conditions: UO-31, 48 h
[10] = system: HCC 2998; experiment: Cytotoxicity against human HCC2998 cells after 48 hrs by SRB assay; conditions: HCC 2998, 48 h
[11] = system: A498; experiment: Cytotoxicity against human A498 cells after 48 hrs by SRB assay; conditions: A498, 48 h
[12] = system: NCI-H226; experiment: Cytotoxicity against human NCI-H226 cells assessed as cell growth at 10^-4 M after 48 hrs by SRB assay relative to control; conditions: NCI-H226, 48 h, read-out: Activity
[13] = system: ACHN; experiment: Cytotoxicity against human ACHN cells assessed as cell growth at 10^-6 M after 48 hrs by SRB assay relative to control; conditions: read-out: Activity
[14] = system: SN12C; experiment: Cytotoxicity against human SN12C cells assessed as cell growth at 10^-6 M after 48 hrs by SRB assay relative to control; conditions: read-out: Activity
[15] = system: SN12C; experiment: Cytotoxicity against human SN12C cells assessed as cell growth at 10^-7 M after 48 hrs by SRB assay relative to control; conditions: read-out: Activity
[16] = system: U-251; experiment: Cytotoxicity against human U251 cells assessed as cell growth at 10^-6 M after 48 hrs by SRB assay relative to control; conditions: U-251, 48 h, read-out: Activity
[17] = system: NCI-H322M; experiment: Cytotoxicity against human NCI-H322M cells assessed as cell growth at 10^-4 M after 48 hrs by SRB assay relative to control; conditions: read-out: Activity
[18] = system: SF-539; experiment: Cytotoxicity against human SF539 cells after 48 hrs by SRB assay; conditions: SF-539, 48 h
[19] = system: RXF 393; experiment: Cytotoxicity against human RXF393 cells assessed as cell growth at 10^-8 M after 48 hrs by SRB assay relative to control; conditions: RXF 393, 48 h, read-out: Activity
[20] = system: A498; experiment: Cytotoxicity against human A498 cells assessed as cell growth at 10^-4 M after 48 hrs by SRB assay relative to control; conditions: A498, 48 h, read-out: Activity
[21] = system: SNB-19; experiment: Cytotoxicity against human SNB19 cells after 48 hrs by SRB assay; conditions: SNB-19, 48 h
[22] = system: CAKI-1; experiment: Cytotoxicity against human Caki1 cells assessed as cell growth at 10^-6 M after 48 hrs by SRB assay relative to control; conditions: CAKI-1, 48 h, read-out: Activity
[23] = system: K562; experiment: Cytotoxicity against human K562 cells after 48 hrs by SRB assay; conditions: K562, 48 h
[24] = system: SK-MEL-28; experiment: Cytotoxicity against human SK-MEL-28 cells assessed as cell growth at 10^-7 M after 48 hrs by SRB assay relative to control; conditions: SK-MEL-28, 48 h, read-out: Activity
[25] = system: HOP-62; experiment: Cytotoxicity against human HOP62 cells assessed as cell growth at 10^-4 M after 48 hrs by SRB assay relative to control; conditions: HOP-62, 48 h, read-out: Activity
[26] = system: SF-268; experiment: Cytotoxicity against human SF268 cells assessed as cell growth at 10^-6 M after 48 hrs by SRB assay relative to control; conditions: SF-268, 48 h, read-out: Activity
[27] = system: SW-620; experiment: Cytotoxicity against human SW620 cells after 48 hrs by SRB assay; conditions: SW-620, 48 h
[28] = system: MDA-MB-468; experiment: Cytotoxicity against human MDA-MB-468 cells after 48 hrs by SRB assay; conditions: MDA-MB-468, 48 h
[29] = system: HL-60(TB); experiment: Cytotoxicity against human HL-60(TB) cells after 48 hrs by SRB assay; conditions: HL-60, 48 h
[30] = system: TK-10; experiment: Cytotoxicity against human TK10 cells assessed as cell growth at 10^-7 M after 48 hrs by SRB assay relative to control; conditions: TK-10, 48 h, read-out: Activity
[31] = system: SK-MEL-28; experiment: Cytotoxicity against human SK-MEL-28 cells assessed as cell growth at 10^-6 M after 48 hrs by SRB assay relative to control; conditions: SK-MEL-28, 48 h, read-out: Activity
[32] = system: SF-295; experiment: Cytotoxicity against human SF295 cells assessed as cell growth at 10^-6 M after 48 hrs by SRB assay relative to control; conditions: SF-295, 48 h, read-out: Activity
[33] = Cytotoxicity against human OVCAR5 cells after 48 hrs by SRB assay; conditions: OVCAR-5, 48 h
[34] = system: SK-MEL-2; experiment: Cytotoxicity against human SK-MEL-2 cells assessed as cell growth at 10^-4 M after 48 hrs by SRB assay relative to control; conditions: SK-MEL-2, 48 h, read-out: Activity
[35] = Cytotoxicity against human OVCAR3 cells after 48 hrs by SRB assay; conditions: OVCAR-3, 48 h
[36] = system: Malme-3M; experiment: Cytotoxicity against human MALME-3M cells assessed as cell growth at 10^-4 M after 48 hrs by SRB assay relative to control; conditions: read-out: Activity
[37] = read-out: LC50 (the source's name)

`COc1ccc(CCN2COc3c([C@@H](C)CCC=C(C)C)ccc(C)c3C2)cc1OC` showed a growth at 0.01 µM [1] of 105%, a growth at 0.1 µM [2] of 97% and a growth at 0.01 µM [3] of 98%. For the same molecule, the growth at 100 µM [4] was -100%, the growth at 100 µM [5] was -95% and the growth at 1 µM [6] was 93%. The GI50 [7] was 8.64 µM, the LC50 [7] was 49.1 µM and the TGI [7] was 21.6 µM. The growth at 0.1 µM [8] was 89%, the GI50 [9] was 2.45 µM and the LC50 [9] was 36.4 µM. For the same molecule, the TGI [9] was 12.3 µM, the GI50 [10] was 1.59 µM and the TGI [10] was 2.96 µM. The CC50 [10, 37] was 5.49 µM, the GI50 [11] was 1.96 µM and the TGI [11] was 11.9 µM. For the same molecule, the CC50 [11, 37] was 37.1 µM, the growth at 100 µM [12] was -93% and the growth at 1 µM [13] was 85%. For the same molecule, the growth at 1 µM [14] was 87%, the growth at 0.1 µM [15] was 89% and the growth at 1 µM [16] was 88%. It also gave a growth at 100 µM [17] of -69%, a GI50 [18] of 4.47 µM and a TGI [18] of 15.9 µM. For the same molecule, the CC50 [18, 37] was 39.9 µM, the growth at 0.01 µM [19] was 70% and the growth at 100 µM [20] was -93%. The GI50 [21] was 12.1 µM, the TGI [21] was 42.8 µM and the CC50 [21, 37] was greater than 100 µM. The growth at 1 µM [22] was 83%, the GI50 [23] was 3.7 µM and the TGI [23] was 93.5 µM. For the same molecule, the CC50 [23, 37] was greater than 100 µM, the growth at 0.1 µM [24] was 84% and the growth at 100 µM [25] was 100%. For the same molecule, the growth at 1 µM [26] was 67%, the GI50 [27] was 1.91 µM and the TGI [27] was 4.08 µM. It also gave a CC50 [27, 37] of 8.72 µM, a GI50 [28] of 1.23 µM and an LC50 [28] of 7.08 µM. It also gave a TGI [28] of 9.95 µM, a GI50 [29] of 4.11 µM and a TGI [29] of 60.9 µM. It also gave a CC50 [29, 37] greater than 100 µM, a growth at 0.1 µM [30] of 79% and a growth at 1 µM [31] of 99%. The growth at 1 µM [32] was 80%, the GI50 [33] was 8.53 µM and the TGI [33] was 20.8 µM. For the same molecule, the CC50 [33, 37] was 45.6 µM, the growth at 100 µM [34] was -95% and the GI50 [35] was 3.55 µM. The LC50 [35] was 40.1 µM, the TGI [35] was 14.1 µM and the growth at 100 µM [36] was -88%.
